Results as given in US4260612A, “Antiallergic nitrogen bridge-head compounds” (Chinoin Gyogyszer es Vecyeszeti Termekek Gyara Rt., priority 1977, dated 1981).

How the values were obtained:
histamine = test: Released histamine in vitro (antiallergic tests incl. Church-test); assay type: cell-based, rats; conditions: Rattus norvegicus; read-out: Released histamine in vitro, ED50
Experimental: (§1) The tests were carried out by the PCA test-method (Ovary: J. Immun. 81, 355, 1958) and the Church-test (British J. Pharm. 46, 56-66, 1972; Immunology 29, 527-534, 1975) and as comparing substance disodium chromoglycate is used. The test is carried out in rats.

allergic reactions = test: PCA test (antiallergic activity, rats); assay type: in vivo; conditions: for ED50: Rattus norvegicus, iv; for ED50 / percental activity in the PCA test: rats
Experimental: as §1

allergic symptoms = conditions: orally; background statement; cited from earlier work

For `CC1CC=C(Nc2ccccc2)c2ncc(C(=O)O)c(=O)n21` (stereo not shown) [Example 1, 9-(phenyl-amino)-6-methyl-4-oxo-6,7-dihydro-4H-pyrido[1,2-a]pyrimidine-3-carboxylic acid], the IC50 (histamine) was 12.3 µM, the ED50 (allergic reactions) was 1.3 µmol/kg and the “percental activity in the PCA test” value (allergic reactions; single i.v. dose of 10 μmole/kg) was 60%. The “percental activity in the PCA test” value (allergic reactions; single i.v. dose of 320 μmole/kg) was 100%.

In the case of `O=C(O)c1cc(=O)c2c(OCC(O)COc3cccc4oc(C(=O)O)cc(=O)c34)cccc2o1` [disodium chromoglycolate, reference compound], the “oral activity of antiasthmatic agent” value (allergic symptoms) is given as “not active orally”, the ED50 (allergic reactions) is given as 1 µmol/kg and the “route dependence / oral activity” value (allergic reactions; oral versus i.v., words) is given as “effective only when administered intravenously”.
